Results on four molecules are retold here after patent US20250093263A1, “FRET-BASED ASSAYS” (The General Hospital Corporation, priority 2021, published 2025).

Structures are written as SMILES. Bounds are passed on as bounds.

For experiment [1], the target named is T1, HsmPheRS (human mitochondrial PheRS) (Homo sapiens, UniProt O95363).
T1 construct: rows headed: HsmPheRS KD; other: absence of substrates, titrating; human mitochondrial PheRS (HisHalo-HsmPheRS); fused on or other part: C-terminal HaloTag, HRV-3C site and His9 tag; the CoraFluor-1 terbium donor is attached through the HaloTag or by direct Pfp labelling
T1 sequence (O95363 42-357 limits assumed): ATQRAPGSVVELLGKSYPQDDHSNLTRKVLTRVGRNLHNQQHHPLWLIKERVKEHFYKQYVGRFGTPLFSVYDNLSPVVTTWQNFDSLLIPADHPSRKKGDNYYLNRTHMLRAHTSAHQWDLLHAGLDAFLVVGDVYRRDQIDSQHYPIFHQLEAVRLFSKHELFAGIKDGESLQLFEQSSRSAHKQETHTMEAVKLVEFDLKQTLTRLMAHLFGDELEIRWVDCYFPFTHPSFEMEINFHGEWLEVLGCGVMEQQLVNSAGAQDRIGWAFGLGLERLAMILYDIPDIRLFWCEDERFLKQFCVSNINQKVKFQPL
Put plainly: TR-FRET titration of tracer MAT588, HsmPheRS. Type of experiment: binding. As to conditions: absence of substrates, titrating.

Experiment [2] has as its system HsmPheRS (human mitochondrial PheRS). Put plainly: TR-FRET titration of tracer MAT588, HsmPheRS. In kind it is binding.
The target of experiment [3] is T2, HscPheRS (human cytoplasmic PheRS) (Homo sapiens, UniProt Q9Y285).
T2 construct: HisHalo-HscPheRS; alpha subunit residues 1-508; beta subunit residues 1-589; made in house; host or cells: E. coli
T2 sequence (Q9Y285 1-508): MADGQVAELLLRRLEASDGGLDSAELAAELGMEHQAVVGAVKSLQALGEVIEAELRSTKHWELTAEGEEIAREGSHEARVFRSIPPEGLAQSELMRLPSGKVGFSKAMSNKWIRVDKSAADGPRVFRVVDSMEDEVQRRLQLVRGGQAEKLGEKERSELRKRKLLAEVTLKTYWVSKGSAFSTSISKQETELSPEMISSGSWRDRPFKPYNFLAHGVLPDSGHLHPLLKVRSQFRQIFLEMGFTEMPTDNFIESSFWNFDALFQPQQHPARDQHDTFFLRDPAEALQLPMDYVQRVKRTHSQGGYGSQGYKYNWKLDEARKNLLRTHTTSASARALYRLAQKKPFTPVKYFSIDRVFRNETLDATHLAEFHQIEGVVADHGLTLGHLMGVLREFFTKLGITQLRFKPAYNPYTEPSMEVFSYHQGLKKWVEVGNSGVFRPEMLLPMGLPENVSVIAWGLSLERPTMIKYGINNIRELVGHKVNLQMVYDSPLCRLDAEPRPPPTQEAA
T2 sequence (Q9NSD9 1-589 partner): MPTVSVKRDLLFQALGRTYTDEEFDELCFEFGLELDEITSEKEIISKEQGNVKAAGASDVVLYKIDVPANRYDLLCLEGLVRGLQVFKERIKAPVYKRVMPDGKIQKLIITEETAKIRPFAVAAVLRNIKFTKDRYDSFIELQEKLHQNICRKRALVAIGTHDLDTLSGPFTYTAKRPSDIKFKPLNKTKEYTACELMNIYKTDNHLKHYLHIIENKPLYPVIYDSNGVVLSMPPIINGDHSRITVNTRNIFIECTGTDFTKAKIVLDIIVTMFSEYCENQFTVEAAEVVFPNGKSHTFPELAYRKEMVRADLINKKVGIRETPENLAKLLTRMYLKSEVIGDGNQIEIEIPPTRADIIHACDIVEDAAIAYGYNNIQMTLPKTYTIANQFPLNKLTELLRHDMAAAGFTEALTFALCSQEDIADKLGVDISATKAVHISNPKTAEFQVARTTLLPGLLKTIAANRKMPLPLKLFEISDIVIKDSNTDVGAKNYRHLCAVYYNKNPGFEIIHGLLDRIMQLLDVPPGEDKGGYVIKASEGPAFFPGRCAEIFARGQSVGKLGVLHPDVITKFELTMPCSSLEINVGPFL
The experiment can be described thus: TR-FRET titration of tracer MAT588, HscPheRS. As to conditions: absence of substrates. In kind it is binding.

The target of experiment [4] is T3, HDAC1 Recombinant (Homo sapiens, UniProt Q13547).
T3 construct: purchased BPS Bioscience Inc 50051
The experiment can be described thus: HDAC1 enzymatic activity assay with recombinant protein. In kind it is biochemical. As to conditions: 5 nM HDAC1, 18 μM MAZ1600 substrate (3 × KM), 3 h incubation.
Experimental: 7-Amino-4-methyl coumarin fluorescence was measured on a Tecan SPARK plate reader: 350/20 nm excitation, 460/10 nm emission.

Experiment [5] has as its target T3, HDAC1 Recombinant. The experiment can be described thus: TR-FRET assay with recombinant HDAC1. Type of experiment: binding. As to conditions: 5 nM HDAC1, 2.5 nM Tb-Anti-6xHis IgG, 20 nM SAHA-NCT, 3 h.
The next experiment has as its target HDAC1-HaloTag (Homo sapiens, UniProt Q13547).
For experiment [6], the target named is HDAC1-HaloTag in HEK293T cells (Homo sapiens, UniProt Q13547). Put plainly: Cellular TR-FRET target engagement assay, HDAC1-HaloTag in HEK293T cells. Type of experiment: cell-based. The note with it: HEK-293T, read-out: Cellular TR-FRET assay SAHA-NCT 1 μM EC50 column: % @ 100.
Experimental: Separately, stock solutions of plasmid DNA (pFC14A-HDAC1-HaloTag; 16 μg/mL) and PEI-MAX (48 μg/mL) were prepared in PBS such that the final volume of each stock solution was 1:20 of the volume of suspension cells in culture media (1:3 w/w DNA:PEI-MAX). The solutions were thoroughly mixed, then the DNA solution was added slowly to the PEI solution and the resulting transfection cocktail (1:10 volume of suspension) was incubated for 20 min at room temperature. The transfection cocktail was added to the cell suspension (final concentrations: 0.8 μg/mL DNA, 2.4 μg/mL PEI-MAX, 350,000 cells/mL) and the 12 mL suspension was added to a 10 cm dish. Cells were grown for 24 h at 37° C. and 5% CO2.
After, media was aspirated and cells were quickly washed with 12 mL phenol red-free DMEM+10% FBS, followed by one 30 min wash at 37° C. and 5% CO2. Cells were washed with PBS, trypsinized, counted, and pelleted.
The target in another experiment is T4, BRD4(BD1) (Homo sapiens, UniProt O60885).
T4 construct: validated for its applicability with individual recombinant bromodomains BRD4(BD1) and BRD4(BD2); purchased BPS Biosciences, Inc 31040
The experiment can be described thus: TR-FRET saturation binding of JQ1-FITC, BRD4(BD1). As to conditions: 0.5 nM GST-BRD4(BD1), 2 nM CoraFluor-1-labeled anti-GST VHH; read-out: KD,app BRD4(BD1). The procedure: (§1) TR-FRET measurements: unless otherwise noted, experiments were performed in white, 384-well microtiter plates (Corning 3572) in 30 μL assay volume. […] The 490/10 and 520/10 emission channels were acquired with a 50% mirror and a dichroic 510 mirror, respectively, using independently optimized detector gain settings unless specified otherwise. The TR-FRET ratio was taken as the 520/490 nm intensity ratio on a per-well basis.
(§2) Determination of apparent equilibrium dissociation constant (KD,app) of JQ1-FITC toward individual recombinant bromodomains and endogenous BRD4 in MCF7 lysate: recombinant BRD4(BD1) and BRD4(BD2) were purchased from BPS Biosciences, Inc and Epicypher, Inc (GST-BRD4(BD1), 31040; GST-BRD4(BD2), 15-0013, respectively). Recombinant bromodomains were diluted to 0.5 nM in assay buffer (25 mM HEPES, 150 mM NaCl, 0.5 mg/mL BSA, 0.005% TWEEN-20, pH 7.5) with 2 nM CoraFluor-1-labeled anti-GST VHH, then JQ1-FITC was added in serial dilution (1:1.6 titration, 15-point, cmax=100 nM) using a D300 digital dispenser (Hewlett-Packard) and allowed to equilibrate for 2 h at room temperature before TR-FRET measurements were taken. Nonspecific signal was determined with 50 μM JQ1-Acid, and data were fitted to a One Site—Specific Binding model in Prism 9.

In a further experiment the target is T5, BRD4(BD2) (Homo sapiens, UniProt O60885).
T5 construct: validated for its applicability with individual recombinant bromodomains BRD4(BD1) and BRD4(BD2); purchased Epicypher, Inc 15-0013
Put plainly: TR-FRET saturation binding of JQ1-FITC, BRD4(BD2). As to conditions: 0.5 nM GST-BRD4(BD2), 2 nM CoraFluor-1-labeled anti-GST VHH; read-out: KD,app BRD4(BD2). The procedure: as §1, §2

T3 sequence (Q13547 whole entry): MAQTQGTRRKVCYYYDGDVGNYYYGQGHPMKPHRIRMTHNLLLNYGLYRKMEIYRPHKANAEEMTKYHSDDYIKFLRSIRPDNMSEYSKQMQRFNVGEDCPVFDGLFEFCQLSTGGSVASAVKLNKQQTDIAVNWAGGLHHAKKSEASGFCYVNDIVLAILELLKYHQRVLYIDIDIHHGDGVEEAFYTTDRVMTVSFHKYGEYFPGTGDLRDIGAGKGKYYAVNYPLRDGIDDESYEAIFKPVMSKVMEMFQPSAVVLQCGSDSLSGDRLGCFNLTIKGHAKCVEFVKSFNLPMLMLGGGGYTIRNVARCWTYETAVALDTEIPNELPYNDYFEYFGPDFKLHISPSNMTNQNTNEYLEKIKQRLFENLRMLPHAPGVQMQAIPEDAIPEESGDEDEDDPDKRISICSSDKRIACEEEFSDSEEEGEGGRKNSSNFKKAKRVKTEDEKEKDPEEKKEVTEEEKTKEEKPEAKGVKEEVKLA
Chain of HDAC1-HaloTag (Q13547 whole entry): as above
Chain of HDAC1-HaloTag in HEK293T cells (Q13547 whole entry): as above

Regarding `Nc1ncnc2c1ncn2[C@@H]1O[C@H](CN(CCCCCCOCCOCCNC(=O)c2ccc(C(=O)O)c(-c3c4ccc(=O)cc-4oc4cc(O)ccc34)c2)S(=O)(=O)NC(=O)[C@@H](N)Cc2ccccc2)[C@@H](O)[C@H]1O` [MAT588, 4-((2-(2-((6-((N-(L-phenylalanyl)sulfamoyl)(((2R,3S,4R,5R)-5-(6-amino-9H-purin-9-yl)-3,4-dihydroxytetrahydrofuran-2-yl)methyl)amino)hexyl)oxy)ethoxy)ethyl)carbamoyl)-2-(6-hydroxy-3-oxo-3H-xanthen-9-yl)benzoic acid], the Kd was less than 10 nM in [1] and more than 10 µM in [3]. Moreover, in experiment [2], the “selectivity for HsmPheRS over HscPheRS” value is on record as > 1,000 fold.

With `O=C(CCCCCCC(=O)Nc1ccc(CNC(=O)c2ccc(C(=O)O)c(C3=c4cc5c6c(c4Oc4c3cc3c7c4CCCN7CCCC3)CCC[N+]=6CCCC5)c2)cc1)NO` [SAHA-NCT], the IC50 at HDAC1 Recombinant [4] stood at 8 nM. For the same molecule, the Kd on HDAC1 Recombinant [4] was found to be 2 nM; at HDAC1 Recombinant [5] it was 9 nM; at HDAC1-HaloTag, 9 nM.

For the molecule `CC(=O)Nc1ccc(C(=O)Nc2ccccc2N)cc1` [CI-994], the inhibition at 100 µM in [6] was less than 5%.

Turning to `Cc1sc2c(c1C)C(c1ccc(Cl)cc1)=NC(CC(=O)NCCCOCCOCCOCCCNC(=S)Nc1ccc(-c3c4ccc(=O)cc-4oc4cc(O)ccc34)c(C(=O)O)c1)c1nnc(C)n1-2` (stereo not shown) [JQ1-FITC, 5-(3-(1-(4-(4-chlorophenyl)-2,3,9-trimethyl-6H-thieno[3,2-f][1,2,4]triazolo[4,3-a][1,4]diazepin-6-yl)-2-oxo-7,10,13-trioxa-3-azahexadecan-16-y)thioureido)-2-(6-hydroxy-3-oxo-3H-xanthen-9-yl)benzoic acid], the Kd turned out to be 6.5 ± 1.1 nM on BRD4(BD1) and 5.8 ± 1.5 nM at BRD4(BD2).
